Measured values from article PMC9850771 (RSC Advances, 2023).

Legend:
Assay type in all cases: cell-based
MCF7 = test: MTT cytotoxicity assay, breast cancer cell line MCF7; conditions: Homo sapiens; for IC50: MCF7, 24 h, read-out: IC50 MCF7
A375 = test: MTT cytotoxicity assay, melanoma cell line A375; conditions: Homo sapiens, A-375, 24 h, read-out: IC50 A375
MDA-MB-468 = test: MTT cytotoxicity assay, breast cancer cell line MDA-MB-468; conditions: Homo sapiens, MDA-MB-468, 24 h, read-out: IC50 MDA-MB-468

SMILES	IC50 (MCF7) [µM]	IC50 (A375) [µM]	IC50 (MDA-MB-468) [µM]	viability at 300 µM (MCF7; MCF7, read-out: viability value, MCF-7) [%]
Cn1c(=O)c2c(nc(OCc3cn(CCCc4ccccc4)nn3)n2C)n(C)c1=O [Compound 22a, 1,3,7-Trimethyl-8-((1-(3-phenylpropyl)-1H-1,2,3-triazol-4-yl)methoxy)-1H-purine-2,6(3H,7H)-dione]	268 ± 0.2	179 ± 1.2	256 ± 1.4	–
Cn1c(=O)c2c(nc(OCc3cn(CCc4ccccc4)nn3)n2C)n(C)c1=O [Compound 22b, 1,3,7-Trimethyl-8-((1-phenethyl-1H-1,2,3-triazol-4-yl)methoxy)-1H-purine-2,6(3H,7H)-dione]	> 300	> 300	> 300	–
Cn1c(=O)c2c(nc(OCc3cn(Cc4ccccc4)nn3)n2C)n(C)c1=O [Compound 22c, 8-((1-Benzyl-1H-1,2,3-triazol-4-yl)methoxy)-1,3,7-trimethyl-1H-purine-2,6(3H,7H)-dione]	> 300	< 12.5	> 300	–
Cc1ccc(Cn2cc(COc3nc4c(c(=O)n(C)c(=O)n4C)n3C)nn2)cc1 [Compound 22d, 1,3,7-Trimethyl-8-((1-(4-methylbenzyl)-1H-1,2,3-triazol-4-yl)methoxy)-3,7-dihydro-1H-purine-2,6-dione]	> 300	194 ± 1.6	> 300	–
Cn1c(=O)c2c(nc(OCc3cn(C(c4ccccc4)c4ccccc4)nn3)n2C)n(C)c1=O [Compound 22e, 8-((1-Benzhydryl-1H-1,2,3-triazol-4-yl)methoxy)-1,3,7-trimethyl-1H-purine-2,6(3H,7H)-dione]	284 ± 0.2	286 ± 0.2	> 300	–
CCCCCn1cc(COc2nc3c(c(=O)n(C)c(=O)n3C)n2C)nn1 [Compound 22f, 1,3,7-Trimethyl-8-((1-pentyl-1H-1,2,3-triazol-4-yl)methoxy)-1H-purine-2,6(3H,7H)-dione]	136 ± 0.2	160 ± 1.5	126 ± 0.6	17 ± 3
CCCCCCn1cc(COc2nc3c(c(=O)n(C)c(=O)n3C)n2C)nn1 [Compound 22g, 8-((1-Hexyl-1H-1,2,3-triazol-4-yl)methoxy)-1,3,7-trimethyl-1H-purine-2,6(3H,7H)-dione]	> 300	> 300	> 300	–
CCCCCCCn1cc(COc2nc3c(c(=O)n(C)c(=O)n3C)n2C)nn1 [Compound 22h, 8-((1-Heptyl-1H-1,2,3-triazol-4-yl)methoxy)-1,3,7-trimethyl-1H-purine-2,6(3H,7H)-dione]	> 300	> 300	> 300	–
CCCCCCCCn1cc(COc2nc3c(c(=O)n(C)c(=O)n3C)n2C)nn1 [Compound 22i, 1,3,7-Trimethyl-8-((1-octyl-1H-1,2,3-triazol-4-yl)methoxy)-1H-purine-2,6(3H,7H)-dione]	165 ± 1.8	146 ± 1.5	175 ± 1.4	–
CCCCCCCCCCn1cc(COc2nc3c(c(=O)n(C)c(=O)n3C)n2C)nn1 [Compound 22j, 8-((1-Decyl-1H-1,2,3-triazol-4-yl)methoxy)-1,3,7-trimethyl-1H-purine-2,6(3H,7H)-dione]	> 300	> 300	> 300	–
CN(Cc1cnc2nc(N)nc(N)c2n1)c1ccc(C(=O)N[C@@H](CCC(=O)O)C(=O)O)cc1 [MTX, Methotrexate, reference compound]	30 ± 2.9	32 ± 2.2	37 ± 1.9	–
